This is an account of results in patent publication US8022043B2, “Ceramide derivatives as modulators of immunity and autoimmunity” (Albert Einstein College of Medicine of Yeshiva University, priority 2004, dated 2011).

Each structure is given as a SMILES string.

Test [1] concerns iNKT cells. The test is described as follows: In vitro cytokine modulation, murine cell assay system. In kind it is cell-based. An excerpt: The term iNKT cells, as used herein, mean the specific subset of CD1d-dependent T cells that expresses the invariant TCRα chain rearrangement consisting of Vα14-Jα18 in mice, and Vα24-Jα18 in humans. These cells are uniformly reactive to α-galactosylceramides presented by CD1d. These cells are also referred to as “Type 1” NKT cells, and the distinction between the different types of NKT cells and the nomenclature relating to this are summarized in the publication by Godfrey et al., Nat Rev Immunol. 2004 March; 4(3):231-7. Methods for determining cytokine production by iNKT cells in response to CD1d-presented glycolipids for determination of strong or weak agonist activity are described in Yu K O A, Im J S, Molano A, Dutronc Y, Illarionov P A, Forestier C, Fujiwara N, Arias I, Miyake S, Yamamura T, Chang Y-T, Besra G S, Porcelli S A, Modulation of CD1d-restricted NKT cell responses using N-acyl variants of α-galactosylceramides, Proc. Nat. Acad. Sci. (USA), 102:3383-8 (2005), see also Godfrey D I et al., Nat Rev Immunol. 2004 March; 4(3):231-7.

Test [2] relates to NK T hybridoma DN32.D3. The test is described as follows: Murine NK T cell hybridoma stimulation assay (IL-2 release), RMA-S.mCD1d as APC. Conditions: presented by RMA-S/CD1d cells. In kind it is cell-based, mouse. As for the experimental part:
FIG. 5. […] NK T hybridoma DN32.D3 was cultured with CD1d-transfected RMA-S cells in microtiter plate wells. Each ceramide-like glycolipid was titrated over a concentration range from 0.5-500 nM, and supernatants were harvested after 24 hours for measurement of IL-2 release. Units of activity were calculated as the reciprocal of the concentration of ceramide-like glycolipid required to give a half maximal release of IL-2, and all values were normalized to the activity of KRN7000 (defined as 1 Unit). The dotted line indicates the level of activity for KRN7000. The structures of two ceramide-like glycolipids with markedly elevated activity relative to KRN7000 are shown.
The ability of the compounds to activate NK T cell hybridomas in the presence of various types of cells expressing CD1d reported in FIG. 5A was determined using a murine NK T cell hybridoma stimulation assay. […] Relative potencies of the ceramide-like glycolipids were calculated from the reciprocal effective concentrations at half-maximal response (1/EC50), and expressed as units by normalization to the observed potency for KRN7000.
IL-2 production by NK T hybridoma DN32D3 in response to eight selected ceramide-like glycolipids, was determined using three different cell types as antigen presenting cells. […]

The subject of test [3] is NOD mice. The test can be described thus: Prevention of type 1 diabetes in NOD mice. The format is in vivo. Conditions: i.p. once per week, 200 micrograms/kg; comparator DB01-1 (indicated as KRN7000). As for the experimental part: Cohorts of 6-8 female NOD mice were treated with placebo (vehicle) or DB01-1 (indicated as KRN7000), DB03-4 or DB03-5 injections once weekly beginning at 4-5 weeks of age. Treatment was discontinued after 5 injections (DB03-4) or 7 injections (DB03-5). Top graphs show incidence of glycosuria, and bottom graphs show survival in each cohort.
Given the widely held belief that selective augmentation of IL-4 production can be protective or therapeutic in the setting of many autoimmune diseases, we have initiated studies to examine the efficacy of compounds such as DB03-4 and DB03-5 in diabetes prone NOD mice. […] The results reported in FIG. 10 were obtained by treating three groups, each consisting of 9-12 female NOD mice, starting from age 5 weeks with a ceramide-like glycolipid. The indicated ceramide-like glycolipids (DB03-4, DB03-5, or KRN7000) were injected i.p. once per week in a dose of 200 micrograms/kg. Treatment was discontinued at 11 weeks of age, and the mice were monitored weekly for glucosuria (top) and death (bottom).
For experiments involving in vivo treatment of mice with the ceramide-like glycolipids, the ceramide-like glycolipids were administered by i.p. or i.v. injection in 0.2 ml PBS+0.025% Tween-20, or in vehicle alone. A typical dose is about 4-5 nmoles per animal per injection. […]

In the case of `CCCCC/C=C\C/C=C\CCCCCCCCCC(=O)N[C@@H](COC1OC(CO)C(O)C(O)C1O)[C@H](O)[C@H](O)CCCCCCCCCCCCCC` (stereo partly drawn) [DB03-4], the cytokine bias entry in test [1] is on record as “bias towards inducing Type 2 cytokines”. In addition, the IL-4 induction result in test [1] (in vitro) is on record as “strong inducers of IL-4”. The IFNγ induction result in test [1] (in vitro, DB03-3: in some murine strains) is on record as “blunted IFNγ”. Moreover, the “in vitro activity at modulating cytokines” value in test [1] (murine cell assay system) is “show in vitro activity”. The “potency relative to KRN7000 (IL-2 production)” value in test [2] is listed as “extremely enhanced potency”. In test [3], the “prevention of diabetes in NOD mice compared with KRN7000” value is “superior to KRN7000”.
